What was measured:
[1] = Stability of stapled cyclic peptides in human plasma; assay type: in vitro ADME; settings: around 1 mM peptide in H2O (100 µL) + 1 µL reconstituted human plasma, 37 °C, 48 h, HPLC read-out (212 nm)
Protocol: 6. Stability test of stapled cyclic peptides […]
(§1) 27), 15 min, λ = 212nm, flow=3.5)]. […]
A 100 µL aliquot of stapled peptide (around 1 mM) in H2O was treated with 1 µL of
reconstituted human plasma (Sigma-Aldrich) and the resulting mixture vortexed for 30 s and
then shaken at 37 °C. After 48 h, an aliquot of each reaction mixture was analysed by HPLC
(YMC-Pack Pro C18 column (5 µ, 250 mm × 10 mm), isocratic: acetonitrile+0.1% TFA
(§2) /water+0.1% TFA (73-27), 15 min, λ = 212nm, flow=3.5)).

[2] = Stability of stapled cyclic peptides in GSH solution; assay type: physicochemical; settings: around 1 mM peptide in H2O, 1 mM GSH, 37 °C, 48 h, HPLC read-out (212 nm)
Protocol: 6. Stability test of stapled cyclic peptides
A 100 µL aliquot of stapled peptide (around 1 mM) in H2O was treated with 5.3 µL of a 20 mM GSH solution (to 1 mM) and the resulting mixture vortexed for 30 s and then shaken at 37 °C. After 48 h, an aliquot of each reaction mixture was analysed by HPLC [YMC-Pack Pro C18 column (5 µ, 250 mm × 10 mm), isocratic: acetonitrile+0.1% TFA /water+0.1% TFA (73- […]
as §1
(YMC-Pack Pro C18 column (5 µ, 250 mm × 10 mm), isocratic: acetonitrile+0.1% TFA […]
as §2

With `C[C@H](N)C(=O)NCC(=O)N[C@H]1CSCC2(COC2)CSC[C@@H](C(=O)O)NC(=O)[C@H](CO)NC(=O)[C@H]([C@@H](C)O)NC(=O)[C@H](Cc2ccccc2)NC(=O)[C@H]([C@@H](C)O)NC(=O)[C@H](CCCCN)NC(=O)[C@H](Cc2c[nH]c3ccccc23)NC(=O)[C@H](Cc2ccccc2)NC(=O)[C@H](Cc2ccccc2)NC(=O)[C@H](CC(N)=O)NC(=O)[C@H](CCCCN)NC1=O` [compound 3] the “stability in human plasma” value [1] was “remain intact” and the “stability in the presence of glutathione (GSH)” value [2] was “remain intact”.

For `C[C@@H](O)[C@@H]1NC(=O)[C@H](CCCCN)NC(=O)[C@@H](Cc2c[nH]c3ccccc23)NC(=O)[C@H](Cc2ccccc2)NC(=O)[C@@H](NC(=O)[C@H](N)Cc2ccccc2)CSCC2(COC2)CSC[C@@H](C(=O)N[C@H](CO)[C@@H](C)O)NC1=O` [compound 5], the “stability in human plasma” value [1] was “remain intact” and the “stability in the presence of glutathione (GSH)” value [2] was “remain intact”.
